# Laboratory results reported in US20120308537A1, “Use Of Collagen Type VII For Maintaining And Re-Inducing Osteogenic Abilities Of Mesenchymal Stem Cells” (UNIVERSITY OF SOUTHERN CALIFORNIA, priority 2009, published 2012).
# Tests used:
# [1] = tested on: human MSCs; experiment: Alizarin red (AR) staining of MSCs in osteogenic medium (calcium accumulation and mineralization); assay type: cell-based
# Protocol: Alizarin red (AR) staining is normally used to determine the calcium accumulation and mineralization that are associated with bone formation. Cells in the tissue culture dishes labeled C7 were incubated with osteogenic induction medium containing 1.0 μg/ml of C7. Cells in the tissue culture dishes labelled OST were incubated with osteogenic induction medium alone (controls).
# FIG. 3A is the scanned image of Alizarin red staining (top) and its quantification (bottom).
# FIG. 3B is the scanned image of Alizarin red staining (top) and its quantification (bottom). […] The results represent mean values+/−standard deviation from experiments performed in triplicates. Note that MSCs only need to be exposed to 0.6 μg/ml of C7 during days 8-12 to attain optimal osteogenic induction.
# For these experiments, plated MSCs were plated at 3×10^5/per well on 6-well plates in MSC growth medium containing α-MEM containing 16.7% Premium FBS (Atlanta Biologicals Cat# S11550), and 2 mM L-Glutamine. After the cells reached 70% confluency, the medium was changed to osteogenic induction medium with or without 0.6 μg/ml C7 added at the time period indicated above.
# Here the MSCs were treated with 4 μg/ml of NC1 for 21 days in an osteogenic medium. Results represent mean values+/−standard deviation from experiments performed in triplicates.
# (§1) FIG. 9A is a scanned image of Alizarin staining (left) and its quantification (right). Here the MSCs were treated with 1.0 μg/ml C7 or 1.0 μg/ml C7 and 15 μM U0126 in the presence of an osteogenic medium for 21 days. In FIG. 9B, MSCs were cultured as in FIG. 9A. RNAs were collected after 14 days and subjected to RT-PCR analysis for early osteogenic gene markers. Results for staining represent mean values+/−standard deviation from experiments performed in quadruplicate. RT-PCR results represented the mean+/−standard deviation of duplicate experiments with PCR performed in triplicates. The […] inhibitor abolished C7-induced calcium deposition and expression of early osteogenic gene markers.
# [2] = tested on: ALP, Runx2, BSP, OCN mRNA in MSCs; experiment: Real-Time PCR analysis of osteogenic-specific gene expression in MSCs; assay type: cell-based, human
# Protocol: In this experiment, MSCs were cultured in 6-well plates in growth medium until they reached confluence. Then, they were switched to osteogenic medium. Respective wells were treated with 1.0 μg/ml C7 until the indicated harvest days. Equal amounts of RNA were reverse transcribed and the mRNA levels of the indicated genes were analyzed using SYBR green master mix and primers for alkaline phosphotase (ALP), Runx2, bone sialoprotein (BSP), and osteocalcin (OCN). Data were normalized to house keeping gene GAPDH and expressed as fold-changes relative to 7D untreated cells. Results represent the mean+/−standard deviation of duplicate experiments with PCR performed in triplicates.
# as §1
# [3] = tested on: p-ERK (Ras-ERK signaling pathway); experiment: Immunoblot analysis of ERK phosphorylation in MSCs under osteogenic conditions; assay type: cell-based, human
# Protocol: (§2) In this experiment, cells were serum starved for 48 hours and then stimulated with osteogenic medium in the absence or presence of 1.0 μg/ml C7. Cellular extracts were prepared at the times indicated and then subjected to immunoblot analysis with antibodies shown above. Total ERK and paxillin are included to indicate equal protein loading.
# In this experiment, cells were pretreated with the respective inhibitor for 1 hour before addition of 1.0 μg/ml C7. Regular ERK is included as a control for equal protein loading.
# [4] = tested on: human MSCs; experiment: Alkaline phosphotase (ALP) staining of MSCs in osteogenic medium; assay type: cell-based; conditions: 1.0 μg/ml C7, 14 days in osteogenic medium, vs osteogenic medium alone
# Protocol: ALP measures the expression of a key marker enzyme that is needed for bone formation. The tissue culture dishes labeled C7 were treated with 1.0 μg/ml C7 whereas dishes label OST were the controls. The cells were incubated in an osteogenic medium for 14 days.
# [5] = tested on: late passage MSCs; experiment: Alizarin red staining of late passage MSCs (exogenous C7 or lentiviral C7 over-expression); assay type: cell-based, human
# Protocol: FIG. 5A is the scanned image of Alizarin red staining (top) and its quantification (bottom). Late passage MSCs (passage 8) were treated with 1.0 μg/ml of C7 in the presence of an osteogenic medium for 21 days.
# FIG. 5B is the scanned image of Alizarin red staining (top) and its quantification (bottom). Late passage MSCs infected with lentiviral vectors expressing either green fluorescence protein (GFP) or C7 were subjected to osteogenic medium for 21 days. Results represent mean values+/−standard deviation from experiments performed in triplicates.
# For these experiments, MSCs from passage 3 were infected with lentiviral vectors expressing either GFP or C7 and cultured for an additional 7 passages. Then infected MSCs (passage 10) were plated at 6 well-plates and then subjected to osteogenic induction medium.
# [6] = tested on: p-P38; experiment: Immunoblot analysis of P38 phosphorylation in MSCs under osteogenic conditions; assay type: cell-based, human; conditions: 1.0 μg/ml C7; serum starved 48 hours
# Protocol: as §2
# [7] = tested on: ectopic osteogenesis induction; experiment: ALP assay of ectopic osteogenesis induction, intramuscular implantation in rat; assay type: in vivo; conditions: 4 weeks
# Protocol: (§3) The negative control was carrier only, which consisted of collagen sponge (bovine). The samples were administered to rat via intramuscular implantation on ectopic sites. The experiment lasted for 4 weeks. Two different preparations (C7 and C7′) were tested. The test dosages were: 10, 20 and 40 μg. The results were analyzed by alkaline phosphotase assay (ALP) and histology for bone formation.
# [8] = tested on: ectopic osteogenesis induction; experiment: Histology analysis of ectopic osteogenesis induction (bone formation), intramuscular implantation in rat; assay type: in vivo; conditions: 4 weeks
# Protocol: as §3
# [9] = tested on: MSCs; experiment: Inducing and maintaining the osteogenicity of MSCs by C7 fragments (general statement); assay type: cell-based; conditions: fragments of C7 containing the CMP subdomain
# [10] = 1.0 μg/ml C7 and 15 μM U0126, 14 days
# [11] = 1.0 μg/ml C7, normalized to GAPDH
compound,measurement,setting,value
"N#CC(=C(/N)Sc1ccccc1N)/C(C#N)=C(\N)Sc1ccccc1N [U0126, reference compound]",AR staining of C7-treated MSCs (C7-mediated osteogenic induction),"[1]; 1.0 μg/ml C7 and 15 μM U0126, 21 days",reduced
same,mRNA expression of ALP in C7-treated MSCs,[2]; [10],reduced
same,mRNA expression of BSP in C7-treated MSCs,[2]; [10],reduced
same,effect of inhibitor on C7-mediated induction of p-ERK,"[3]; pretreated with inhibitor 1 hour before 1.0 μg/ml C7, proteins collected after 1 hour",Abrogated
type VII collagen [C7],osteogenic potential of human MSCs as measured by Alizarin red activity,"[1]; 1.0 μg/ml C7, 21 days in osteogenic medium, vs osteogenic medium alone",significantly enhances
same,concentration needed to attain optimal osteogenic induction,"[1]; exposure during days 8-12 only, osteogenic medium 21 days",0.6 µg/mL
same,osteogenic potential of human MSCs as measured by ALP activity,[4],significantly enhances
same,restoring osteogenic potential of late passage MSCs (Alizarin red),"[5]; exogenous addition, 1.0 μg/ml C7, passage 8, 21 days",capable of restoring
same,restoring osteogenic potential of late passage MSCs (Alizarin red),"[5]; over-expression by lentiviral vector vs GFP, passage 10, 21 days",capable of restoring
same,ALP mRNA expression (early osteogenic marker),[2]; [11],upregulates
same,BSP mRNA expression (early osteogenic marker),[2]; [11],upregulates
same,OCN mRNA expression (late osteogenic marker),[2]; [11],upregulates
same,Runx2 mRNA expression (early osteogenic marker),[2]; [11],upregulates
same,production of p-ERK,"[3]; 1.0 μg/ml C7, as early as 10 minutes, sustained up to 1 hour, serum starved 48 hours",increased
same,level of p-P38,[6],remained unchanged
same,ALP,[7]; 10 ug C7 or C7′ + 1 ug BMP-2,0.257
same,ALP/Pro,[7]; 10 ug C7 or C7′ + 1 ug BMP-2,2.360
same,ALP/Pro,"[7]; 10 ug C7 or C7′, no BMP-2",0.517
same,ALP,"[7]; 10 ug C7 or C7′, no BMP-2, collagen sponge, intramuscular ectopic site",0.094
same,ALP,[7]; 20 ug C7 or C7′ + 1 ug BMP-2,0.384
same,ALP/Pro,[7]; 20 ug C7 or C7′ + 1 ug BMP-2,1.893
same,ALP,"[7]; 20 ug C7 or C7′, no BMP-2",0.094
same,ALP/Pro,"[7]; 20 ug C7 or C7′, no BMP-2",0.500
same,ALP,"[7]; 40 ug C7 or C7′, no BMP-2",0.092
same,ALP/Pro,"[7]; 40 ug C7 or C7′, no BMP-2",0.364
same,Bone score,[8]; 10 ug C7 or C7′ + 1 ug BMP-2,3
same,Bone score,"[8]; 10 ug C7 or C7′, no BMP-2",0
same,Bone score,[8]; 20 ug C7 or C7′ + 1 ug BMP-2,0
same,Bone score,"[8]; 20 ug C7 or C7′, no BMP-2",0
same,Bone score,"[8]; 40 ug C7 or C7′, no BMP-2",0
same,BMP-2-mediated bone induction (ALP assay and histology),"[8]; low dosage 10 μg with BMP-2, rat intramuscular implantation",significantly enhance
same,effectiveness in inducing and maintaining the osteogenicity of MSCs,[9],relatively effective
